The target of the test is CFTR (Homo sapiens, UniProt P13569). Kind of test: Membrane Potential Dye, Enteroid Assay B. Format: cell-based. Conditions: for EC50: read-out: Ent. B EC50. The essentials: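 Human intestinal enteroids seeded at 5000 cells/well, treated with compound 18-24 h at 37 °C, then loaded 25 min with methyl oxonol membrane-potential dye plus CaCC blockers. Chloride transport started in chloride-free buffer with 10 μM forskolin, 100 μM IBMX and 300 nM Compound III, read 15 min; expressed as % of triple-combination control.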
Chain of CFTR (P13569 with tags, fused parts or gaps DEL508-508): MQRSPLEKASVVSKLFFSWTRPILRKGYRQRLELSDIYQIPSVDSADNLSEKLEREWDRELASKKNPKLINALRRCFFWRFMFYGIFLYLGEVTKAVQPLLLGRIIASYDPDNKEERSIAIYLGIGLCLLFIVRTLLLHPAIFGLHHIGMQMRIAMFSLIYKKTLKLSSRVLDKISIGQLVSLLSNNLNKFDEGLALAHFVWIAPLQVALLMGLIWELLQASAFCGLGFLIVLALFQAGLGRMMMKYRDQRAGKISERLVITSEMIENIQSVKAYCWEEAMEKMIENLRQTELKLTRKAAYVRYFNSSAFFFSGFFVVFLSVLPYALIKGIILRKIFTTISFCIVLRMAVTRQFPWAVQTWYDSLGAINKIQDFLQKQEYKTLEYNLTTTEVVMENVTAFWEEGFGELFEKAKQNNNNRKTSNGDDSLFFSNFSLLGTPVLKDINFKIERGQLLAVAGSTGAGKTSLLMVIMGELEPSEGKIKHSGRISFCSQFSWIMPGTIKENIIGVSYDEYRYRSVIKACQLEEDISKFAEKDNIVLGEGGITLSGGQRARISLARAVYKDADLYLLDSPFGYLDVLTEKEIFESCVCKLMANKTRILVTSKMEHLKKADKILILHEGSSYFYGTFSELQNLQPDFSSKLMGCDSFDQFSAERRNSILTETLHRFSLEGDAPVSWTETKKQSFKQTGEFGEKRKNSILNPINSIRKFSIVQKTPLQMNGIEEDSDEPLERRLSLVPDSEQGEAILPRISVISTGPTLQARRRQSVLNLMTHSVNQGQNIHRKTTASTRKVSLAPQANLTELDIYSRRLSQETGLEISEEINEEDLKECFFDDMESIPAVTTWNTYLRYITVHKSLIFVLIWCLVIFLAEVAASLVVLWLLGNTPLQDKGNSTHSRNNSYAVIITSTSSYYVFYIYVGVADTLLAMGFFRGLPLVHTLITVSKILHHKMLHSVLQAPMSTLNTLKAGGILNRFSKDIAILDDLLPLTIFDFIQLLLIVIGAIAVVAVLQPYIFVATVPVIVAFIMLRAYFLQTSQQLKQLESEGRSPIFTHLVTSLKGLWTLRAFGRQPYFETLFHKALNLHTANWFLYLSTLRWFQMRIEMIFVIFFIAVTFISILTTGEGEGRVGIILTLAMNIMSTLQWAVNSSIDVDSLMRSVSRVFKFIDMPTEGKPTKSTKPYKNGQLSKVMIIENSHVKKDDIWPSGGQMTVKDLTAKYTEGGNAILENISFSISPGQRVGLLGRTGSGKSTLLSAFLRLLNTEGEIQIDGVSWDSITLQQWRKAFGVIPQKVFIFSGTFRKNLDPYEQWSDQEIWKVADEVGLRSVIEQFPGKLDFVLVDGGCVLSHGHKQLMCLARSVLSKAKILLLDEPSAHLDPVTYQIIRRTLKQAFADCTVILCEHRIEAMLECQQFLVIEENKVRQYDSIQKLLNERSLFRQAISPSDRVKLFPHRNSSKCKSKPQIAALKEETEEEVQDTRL

What is called EC50 is the concentration at which the effect is half-maximal.

Molecules are shown by their SMILES.

As for `COc1ccccc1-c1c2nc(nc1-c1c(C)cccc1C)NS(=O)(=O)c1cccc(c1)C(=O)NC[C@@H](C)O2` [Compound 153], the “Ent. B Max Activity” value is given as “+++ (+++ is >60%)” and the EC50 is less than 1 µM.
Turning to `Cc1cccc(C)c1-c1nc2nc(c1-c1ccccn1)O[C@H](C)CNC(=O)c1cccc(c1)S(=O)(=O)N2` [Compound 154], the “Ent. B Max Activity” value was “+ (+ is <30%)” and the EC50 is 3 to 30 µM.
On to `Cc1cccc(C)c1-c1nc2nc(c1C)OC[C@@H](CC(C)(C)C(F)(F)F)N(C1CC3(CCNCC3)C1)C(=O)c1cccc(c1)S(=O)(=O)N2` [Compound 157, (11R)-12-{7-Azaspiro[3.5]nonan-2-yl}-6-(2,6-dimethylphenyl)-7-methyl-11-(3,3,3-trifluoro-2,2-dimethylpropyl)-9-oxa-2λ^6-thia-3,5,12,19-tetraazatricyclo[12.3.1.14,8]nonadeca-1(17),4(19),5,7,14(18),15-hexaene-2,2,13-trione], for which the “Ent. B Max Activity” value was “+++ (+++ is >60%)” and the EC50 is less than 1 µM.
As to `Cc1ccc(C(F)(F)F)c(C)c1-c1nc2nc(c1C(F)(F)F)OC[C@@H](CC(C)C)NC(=O)c1cccc(c1)S(=O)(=O)N2` [Compound 163, (11R)-6-[2,6-Dimethyl-3-(trifluoromethyl)phenyl]-11-isobutyl-2,2-dioxo-7-(trifluoromethyl)-9-oxa-2λ^6-thia-3,5,12,19-tetrazatricyclo[12.3.1.14,8]nonadeca-1(18),4(19),5,7,14,16-hexaen-13-one], the “Ent. B Max Activity” value is reported as “+++ (+++ is >60%)” and the concentration giving a half-maximal response (EC50) was less than 1 µM.
Take `COCCN1CCC2(CC1)CC(N1C(=O)c3cccc(c3)S(=O)(=O)Nc3nc(c(OC)c(-c4c(C)cccc4C)n3)OC[C@H]1CC(C)C)C2` [Compound 166, (11R)-6-(2,6-dimethylphenyl)-11-isobutyl-7-methoxy-12-[7-(2-methoxyethyl)-7-azaspiro[3.5]nonan-2-yl]-2,2-dioxo-9-oxa-2λ^6-thia-3,5,12,19-tetrazatricyclo[12.3.1.14,8]nonadeca-1(18),4(19),5,7,14,16-hexaen-13-one]: the “Ent. B Max Activity” value is on record as “+++ (+++ is >60%)” and the EC50 was less than 1 µM.
For the compound `Cc1cccc(C)c1-c1nc2nc(c1C(=O)O)OC[C@@H](CC(C)C)N(C1CC3(CC3)C1)C(=O)c1cccc(c1)S(=O)(=O)N2` [Compound 168, (11R)-6-(2,6-Dimethylphenyl)-11-isobutyl-2,2,13-trioxo-12-spiro[2.3]hexan-5-yl-9-oxa-2λ^6-thia-3,5,12,19-tetrazatricyclo[12.3.1.14,8]nonadeca-1(18),4(19),5,7,14,16-hexaene-7-carboxylic acid], the “Ent. B Max Activity” value is “+ (+ is <30%)”.
Turning to `Cc1cccc(C)c1-c1nc2nc(c1C#N)OC[C@@H](CC(C)C)NC(=O)c1cccc(c1)S(=O)(=O)N2` [Compound 169, (11R)-6-(2,6-Dimethylphenyl)-11-isobutyl-2,2,13-trioxo-9-oxa-2λ^6-thia-3,5,12,19-tetrazatricyclo[12.3.1.14,8]nonadeca-1(18),4(19),5,7,14,16-hexaene-7-carbonitrile], the “Ent. B Max Activity” value is on record as “+++ (+++ is >60%)” and the EC50 was 3 to 30 µM.
Turning to `Cc1cccc(C)c1-c1nc2nc(c1CO)OC[C@@H](CC(C)C)N(C1CC3(CC3)C1)C(=O)c1cccc(c1)S(=O)(=O)N2` [Compound 170, (11R)-6-(2,6-Dimethylphenyl)-7-(hydroxymethyl)-11-isobutyl-2,2-dioxo-12-spiro[2.3]hexan-5-yl-9-oxa-2λ^6-thia-3,5,12,19-tetrazatricyclo[12.3.1.14,8]nonadeca-1(18),4(19),5,7,14,16-hexaen-13-one], the “Ent. B Max Activity” value is reported as “++ (++ is 30-60%)” and the EC50 was less than 1 µM.
`Cc1cccc(C)c1-c1nc2nc(c1CN(C)C)OC[C@@H](CC(C)C)N(C1CC3(CC3)C1)C(=O)c1cccc(c1)S(=O)(=O)N2` [Compound 171, (11R)-7-[(Dimethylamino)methyl]-6-(2,6-dimethylphenyl)-11-isobutyl-2,2-dioxo-12-spiro[2.3]hexan-5-yl-9-oxa-2λ^6-thia-3,5,12,19-tetrazatricyclo[12.3.1.14,8]nonadeca-1(18),4(19),5,7,14,16-hexaen-13-one]: the “Ent. B Max Activity” value is “++ (++ is 30-60%)” and the EC50 is less than 1 µM.
Turning to `Cc1cccc(C)c1-c1nc2nc(c1C#N)OC[C@@H](CC(C)C)N(C1CC3(CC3)C1)C(=O)c1cccc(c1)S(=O)(=O)N2` [Compound 174], the “Ent. B Max Activity” value is “++ (++ is 30-60%)” and the EC50 is less than 1 µM.
Turning to `Cc1cccc(C)c1-c1nc2nc(c1F)OC[C@@H](CC(C)C)N(C1CC3(CC3)C1)C(=O)c1cccc(c1)S(=O)(=O)N2` [Compound 175], the “Ent. B Max Activity” value was “+++ (+++ is >60%)” and the EC50 was less than 1 µM.
In the case of `COc1c2nc(nc1-c1c(C)cccc1C)NS(=O)(=O)c1cccc(c1)C(=O)N(C1CC3(CC3)C1)[C@H](CC(C)C)CO2` [Compound 179], the “Ent. B Max Activity” value is “+++ (+++ is >60%)” and the EC50 was less than 1 µM.
With `COc1c2nc(nc1-c1c(C)cccc1C)NS(=O)(=O)c1cccc(c1)C(=O)N[C@H](CC(C)C)CO2` [Compound 180], the “Ent. B Max Activity” value is listed as “+++ (+++ is >60%)” and the EC50 was less than 1 µM.
On the same counts, the results for `COC(=O)N1CCC2(CC1)CC(N1C(=O)c3cccc(c3)S(=O)(=O)Nc3nc(c(C)c(-c4c(C)cccc4C)n3)OC[C@H]1CC(C)(C)C(F)(F)F)C2` [Compound 183] are “+++ (+++ is >60%)” and less than 1 µM.
For `Cc1cccc(C)c1-c1nc2nc(c1C)OC[C@@H](CC(C)(C)C(F)(F)F)N(C1CC3(CCN(C(=O)OC(C)C)CC3)C1)C(=O)c1cccc(c1)S(=O)(=O)N2` [Compound 184], the “Ent. B Max Activity” value is on record as “+++ (+++ is >60%)” and the EC50 was less than 1 µM.
As for `COCCN1CCC2(CC1)CC(N1C(=O)c3cccc(c3)S(=O)(=O)Nc3nc(c(F)c(-c4c(C)cccc4C)n3)OC[C@H]1CC(C)C)C2` [Compound 185], the “Ent. B Max Activity” value was “+++ (+++ is >60%)” and the EC50 is less than 1 µM.
On to `Cc1cccc(C)c1-c1nc2nc(c1F)OC[C@@H](CC(C)C)N(C1CC3(CCNCC3)C1)C(=O)c1cccc(c1)S(=O)(=O)N2` [Compound 186], for which the “Ent. B Max Activity” value is “++ (++ is 30-60%)” and the EC50 was less than 1 µM.
Regarding `Cc1cccc(C)c1-c1nc2nc(c1F)OC[C@@H](CC(C)C)N(C1CC3(CCN(C(=O)OC(C)(C)C)CC3)C1)C(=O)c1cccc(c1)S(=O)(=O)N2` [Compound 187], the “Ent. B Max Activity” value was “+++ (+++ is >60%)” and the EC50 is less than 1 µM.
Take `CCc1c2nc(nc1-c1c(C)cccc1C)NS(=O)(=O)c1cccc(c1)C(=O)N(C1CC3(CC3)C1)[C@H](CC(C)(C)C)CO2` [Compound 188]: the “Ent. B Max Activity” value is reported as “+++ (+++ is >60%)” and the EC50 was less than 1 µM.
On to `Cc1cccc(C)c1-c1nc2nc(c1OC(C)C)OC[C@@H](CC(C)C)N(C1CC3(CC3)C1)C(=O)c1cccc(c1)S(=O)(=O)N2` [Compound 189], for which the “Ent. B Max Activity” value was “+++ (+++ is >60%)” and the EC50 is less than 1 µM.
On the same counts, the results for `Cc1cccc(C)c1-c1nc2nc(c1C)O[C@H](C)CN(C1CC3(CC(NC(=O)OC(C)(C)C)C3)C1)C(=O)c1cccc(c1)S(=O)(=O)N2` (stereo partly shown) [Compound 201] are “++ (++ is 30-60%)” and less than 1 µM.
As to `Cc1cccc(C)c1-c1nc2nc(c1C)O[C@H](C)CNC(=O)c1cccc(c1)S(=O)(=O)N2` [Compound 202], the “Ent. B Max Activity” value is “++ (++ is 30-60%)” and the EC50 lay within 1 to 3 µM.
Take `Cc1cccc(C)c1-c1nc2nc(c1C)OC(c1ccc(CC3(C(F)(F)F)CC3)cn1)CN(C)C(=O)c1cccc(c1)S(=O)(=O)N2` (stereo not shown) [Compound 203]: the “Ent. B Max Activity” value is reported as “+++ (+++ is >60%)” and the concentration for a half-maximal effect (EC50) is less than 1 µM.
`Cc1cccc(C)c1-c1nc2nc(c1C)OC(c1ccc(CC3(C(F)(F)F)CC3)cn1)CN(C)C(=O)c1cccc(c1)S(=O)(=O)N2` (stereo not shown) [Compound 204]: the “Ent. B Max Activity” value is recorded as “++ (++ is 30-60%)” and the EC50 was less than 1 µM.
`Cc1cccc(C)c1-c1nc2nc(c1C)OC(c1ccc(CC3(C(F)(F)F)CC3)cn1)CN(C)C(=O)c1cccc(c1)S(=O)(=O)N2` (stereo not shown) [Compound 205]: the “Ent. B Max Activity” value is reported as “+++ (+++ is >60%)” and the EC50 is less than 1 µM.

The values are drawn from US20230374038A1, “MODULATORS OF CYSTIC FIBROSIS TRANSMEMBRANE CONDUCTANCE REGULATOR” (VERTEX PHARMACEUTICALS INCORPORATED, priority 2020, published 2023).
